Patent US8475775B1, “Retinoids and use thereof” (The UAB Research Foundation, priority 2012, dated 2013)

Assays:
Assay type in all cases: in vivo
[1] = system: hairless SKH1-E mice; assay: Epidermal hyperplasia on dorsal skin (marker of retinoid activity), 14-day topical application; details: for epidermal hyperplasia grading, average: dorsal skin, scale of 0=none to 5=marked
Procedure: (§1) UAB30, 4Me-UAB30 and UAB111 at 0.1% and 0.3%, tazarotene at 0.1% and vehicle were applied topically on approximately 8 cm2 (2×4 cm) of the dorsal skin (100 μL) and on the right ear (20 μL).
(§2) The test compounds were UAB30, 4Me-UAB30 and UAB111. Tazarotene (0.1% cream) was purchased by Ricerca Taiwan Ltd. The three compounds at 0.1% and 0.3%, Tazarotene (0.1% cream) and vehicle (70% ethanol/30% propylene glycol) were each administered topically on the back (100 μL) and on the right ear (20 μL) once daily for two weeks.
(§3) Female SKH1-E hairless mice (Crl:SKH1-Hrhr) weighing 22±2 g were used. The animals were divided into groups of 5 each. Once a day, 100 μl of vehicle, tazarotene, and test articles were applied on the back with a micropipette and smeared evenly with gloved finger on approximately 8 cm2 (2×4 cm) of the dorsal skin; 20 μl was applied to the right ear. The tested animals were treated for two consecutive weeks. Body weight was monitored twice a week.
(§4) Epidermal hyperplasia on the dorsal skin was used as a marker of retinoid activity. For histological evaluation, mice were sacrificed on day 15. The dorsal skin was dissected and stretched to the natural size on the filter. Punch biopsies (ED 8 mm) were obtained, fixed in 10% buffered formalin, and embedded in paraffin. Five micro thick sections were cut, stained with H&E, and a representative section of each biopsy was selected for histological evaluation.
(§5) For histological evaluation, the dorsal skin was dissected and stretched to the natural size on the filter. Punch biopsies (ED 8 mm) were obtained, fixed in 10% buffered formalin, and embedded in paraffin. Five micro thick sections were cut, stained with H&E, and a representative section of each biopsy was selected for histological evaluation. Right ear was harvested on day 15 for measurements of myeloperoxidase activity by mouse MPO ELISA kit, a measure of neutrophil infiltrates.

[2] = system: hairless SKH1-E mice; assay: Skin irritation on dorsal skin (erythema, desquamation, lesions/abrasion), visual score; details: for Mean skin irritation score: scale of 0-4
Procedure: as §1, §2, §3
Erythema, desquamation (skin flaking), and skin lesions/abrasion on dorsal skin were assessed visually in individual animals at the end of a 2-week treatment and scored on a scale of 0 to 4+, with 4+being maximal. • 0: Normal • 1+: Mild erythema • 2+: Moderate erythema • 3+: Severe erythema/Desquamation • 4+: Lesions/abrasion.

[3] = system: hairless SKH1-E mice; assay: Ear myeloperoxidase (MPO) by mouse MPO ELISA kit, measure of neutrophil infiltrates; details: harvested day 15
Procedure: as §1, §2, §3, §5

[4] = system: hairless SKH1-E mice; assay: Histopathology of dorsal skin: hyperkeratosis/serocellular crust, utriculus formation, sebaceous gland hyperplasia; details: of 5 mice per group
Procedure: as §3, §4, §5

[5] = 0.1% topical once daily for 14 days
[6] = 0.1% topical 20 μL on right ear for 14 days

Compound	epidermal hyperplasia grading, average [1, 5]	Mean skin irritation score ([2]; 0.1% topical for 14 days)	ear Myeloperoxidase (MPO), marker of neutrophil infiltration [3, 6]	epidermal hyperplasia grading, average ([1]; 0.3% topical once daily for 14 days)	incidence of epidermal hyperplasia compared to 0.1% Tazarotene ([1]; 14-day topical, histopathology, concentration not specified (0.1% and 0.3% groups))	skin irritation, observation in words ([2]; 0.1% topical for 14 days, groups of 5)	Mean skin irritation score ([2]; 0.3% topical for 14 days)	ear Myeloperoxidase (MPO), marker of neutrophil infiltration ([3]; 0.3% topical 20 μL on right ear for 14 days)	Hyperkeratosis and/or serocellular crust, number of mice affected ([4]; 0.1% topical for 14 days)	Hyperkeratosis and/or serocellular crust, number of mice affected ([4]; 0.3% topical for 14 days)
CCOC(=O)c1ccc(C#Cc2ccc3c(c2)C(C)(C)CCS3)nc1 [Tazarotene, reference compound]	2	3	marked increase							
CC(=C/C=C/C(C)=C/C(=O)O)/C=C1\CCCc2ccccc21 [UAB30, (2E,4E,6E,8E)-8-(3′,4′-Dihydro-1′(2′H)-naphthalen-1′-ylidene)3,7-dimethyl-2,4,6-octatrienoic acid]	1.8		no effect	2	comparable incidence	did not cause any irritation	1	no effect	1	not reported
